Assay results: US20230226099A1, “INHALABLE FORMULATION” (AALTO UNIVERSITY FOUNDATION SR, priority 2020, published 2023)

Key:
[1] = test system: MDR-Acinetobacter baumannii; assay: Antibiotic resistance profile of strain; format: cell-based; settings: strain 5542
Pseudomonas aeruginosa = assay: Antibiotic resistance profile of strains; format: cell-based
[2] = test system: Pseudomonas aeruginosa PAO1; assay: Coadministration with antibiotics, development of resistance (MIC over days); format: cell-based
From the text: MIC values were categorized in three groups according to the Clinical and Laboratory Standards Institute: susceptible, intermediate susceptible and resistant.

[3] = Lung neutrophil infiltration and inflammation score after i.v. or i.n. administration; format: in vivo; settings: BALB/c mice, different dosages, 24 hours
From the text: Two different administration methods were use, intravenously (i.v.) or intranasally (i.n.). Pathological changes were graded according to severity (P=Present; 1=Minimal; 2=Mild; 3=Moderate).

[4] = test system: lipopolysaccharides of P. aeruginosa, strain PA10; assay: Analytical ultracentrifuge sedimentation velocity analysis of interaction with LPS; format: binding, Pseudomonas aeruginosa; settings: 135 μM P[5]a and 35 μM LPS, UV absorbance at 305 nm
Experimental: A clear initial peak of unbound P[5]a can be observer at low molecular weight (2260 Da), followed by a long and polydisperse collection of peaks, ranging from low molecular weight (S), to very high molecular weight (60.000 kDa) See Example 2.
The interaction of P[5]a with lipopolysaccharides of P. aeruginosa, strain PA10 was measured using AUC.
Analytical ultracentrifugation (AUC) is based on sedimentation of colloidal particles in a centrifugal field. During centrifugation particles move toward the bot-tom of the measuring cell. This movement leads to redistribution of particles along the measuring cell, which in turn can be expressed as a change in concentration along the measuring cell. The absorbance detector was used to follow the changes caused by centrifugation (absorbance is proportional to concentration). In simple words, in AUC the inventors measure how concentration changes during centrifugation, so they collect concentration profiles. Interaction between particles can be measured as a result of changes in the sedimentation profiles. […]
The spectra of both P[5]a and LPS from P. aeruginosa were first analysed separately (see FIGS. 11a and b). […] Because only the sedimentation of P[5]a was detected at 305 nm, the inventors were certain that any changes observed in the sedimentation profile, come from interactions between P[5]a and other particles. […]

[5] = test system: MDR resistant clinical isolates; assay: Coadministration with antibiotics in MDR resistant clinical isolates; format: cell-based; settings: Amikacin, Cefepime, Ceftazidime and Meropenem

NCC[C@H](O)C(=O)N[C@@H]1C[C@H](N)[C@@H](O[C@H]2O[C@H](CN)[C@@H](O)[C@H](O)[C@H]2O)[C@H](O)[C@H]1O[C@H]1O[C@H](CO)[C@@H](O)[C@H](N)[C@H]1O [Amikacin]
Antibiotic resistance (category) [1]: Resistant to Amikacin, Amoxicillin-clavulanate, Ampicillin, | Antibiotic resistance (category) (Pseudomonas aeruginosa; strain 2798 (ATCC 2798)): Susceptible | Antibiotic resistance (value) (Pseudomonas aeruginosa; strain 5539): Susceptible to Amikacin 8 ug, intermediate to Cefepime 8 ug, | Antibiotic resistance (value) (Pseudomonas aeruginosa; strain 5542, MDR): MDR Intermediate susceptible to amikacin 16 ug, resistant to | Antibiotic resistance (value) (Pseudomonas aeruginosa; strain 5550, MDR): MDR Intermediate susceptible to amikacin 32 ug | Antibiotic resistance (value) (Pseudomonas aeruginosa; strain 5834, MDR): MDR Intermediate susceptible to amikacin 16 ug, resistant to

CC1(C)S[C@@H]2[C@H](NC(=O)[C@H](N)c3ccccc3)C(=O)N2[C@H]1C(=O)O [Ampicillin]
Antibiotic resistance (category) [1]: Resistant to Amikacin, Amoxicillin-clavulanate, Ampicillin,

CC[C@H]1OC(=O)[C@H](C)[C@@H](O[C@H]2C[C@@](C)(OC)[C@@H](O)[C@H](C)O2)[C@H](C)[C@@H](O[C@@H]2O[C@H](C)C[C@H](N(C)C)[C@H]2O)[C@](C)(O)C[C@@H](C)CN(C)[C@H](C)[C@@H](O)[C@]1(C)O [Azithromycin]
Antibiotic resistance (category) [1]: Resistant to Amikacin, Amoxicillin-clavulanate, Ampicillin,

C[C@H]1[C@H](NC(=O)/C(=N\OC(C)(C)C(=O)O)c2csc(N)n2)C(=O)N1S(=O)(=O)O [Aztreonam]
Antibiotic resistance (category) (Pseudomonas aeruginosa; strain 2798 (ATCC 2798)): Intermediate susceptible

CC1=C(C(=O)O)N2C(=O)[C@@H](NC(=O)[C@H](N)c3ccccc3)[C@H]2SC1 [Cefalexin]
Antibiotic resistance (category) [1]: Resistant to Amikacin, Amoxicillin-clavulanate, Ampicillin,

CO/N=C(\C(=O)N[C@@H]1C(=O)N2C(C(=O)[O-])=C(C[N+]3(C)CCCC3)CS[C@H]12)c1csc(N)n1 [Cefepime]
MIC ([2]; Pseudomonas aeruginosa, 96 h, PAO1, after four days, highest concentration of antibiotic included): 128 µg/mL

CC(C)(O/N=C(\C(=O)N[C@@H]1C(=O)N2C(C(=O)[O-])=C(C[n+]3ccccc3)CS[C@H]12)c1csc(N)n1)C(=O)O [Ceftazidime]
Antibiotic resistance (value) (Pseudomonas aeruginosa; strain 5539): 8 µg | Antibiotic resistance (value) (Pseudomonas aeruginosa; strain 5542, MDR): 32 µg | Antibiotic resistance (value) (Pseudomonas aeruginosa; strain 5827, MDR): 64 µg | Antibiotic resistance (value) (Pseudomonas aeruginosa; strain 5832, MDR): 16 µg | Antibiotic resistance (value) (Pseudomonas aeruginosa; strain 5834, MDR): cefepime 64 ug, ceftazidime 64 ug and meropenem 64 ug

C[C@@H](O)[C@H]1C(=O)N2C(C(=O)O)=C(S[C@@H]3CN[C@H](C(=O)Nc4cccc(C(=O)O)c4)C3)[C@H](C)[C@H]12 [Ertapenem]
Antibiotic resistance (category) [1]: Resistant to Amikacin, Amoxicillin-clavulanate, Ampicillin,

C[C@@H](O)[C@H]1C(=O)N2C(C(=O)O)=C(S[C@@H]3CN[C@H](C(=O)N(C)C)C3)[C@H](C)[C@H]12 [Meropenem]
Antibiotic resistance (category) [1]: Resistant to Amikacin, Amoxicillin-clavulanate, Ampicillin, | Antibiotic resistance (value) (Pseudomonas aeruginosa; strain 5539): 8 µg | Antibiotic resistance (value) (Pseudomonas aeruginosa; strain 5542, MDR): 8 µg | Antibiotic resistance (value) (Pseudomonas aeruginosa; strain 5827, MDR): 16 µg | Antibiotic resistance (value) (Pseudomonas aeruginosa; strain 5832, MDR): 8 µg | Antibiotic resistance (value) (Pseudomonas aeruginosa; strain 5834, MDR): cefepime 64 ug, ceftazidime 64 ug and meropenem 64 ug

C[N+](C)(C)CCOc1cc2c(OCC[N+](C)(C)C)cc1Cc1cc(OCC[N+](C)(C)C)c(cc1OCC[N+](C)(C)C)Cc1cc(OCC[N+](C)(C)C)c(cc1OCC[N+](C)(C)C)Cc1cc(OCC[N+](C)(C)C)c(cc1OCC[N+](C)(C)C)Cc1cc(OCC[N+](C)(C)C)c(cc1OCC[N+](C)(C)C)C2.[Br-].[Br-].[Br-].[Br-].[Br-].[Br-].[Br-].[Br-].[Br-].[Br-] [P[5]a, 4,9,14,19,24,26,28,30,32,34-Deca[2-(trimethylaminio)ethoxy]hexacyclo[21.2.2.2^3,6.2^8,11.2^13,16.2^18,21]pentatriaconta1(25),3,5,8,10, 13,15,18,20,23,26,28,30,32,34-pentadecaene 10bromide]
tolerability (lung neutrophil infiltration and inflammation score) [3]: good tolerability | interaction with LPS [4]: strong interaction | penetration of coadministered antibiotics ([2]; PAO1): enhances the penetration | development of resistance by the pathogen to the coadministered antibiotic ([2]; coadministration with Aztreonam, Cefepime, Meropenem and Tobramycin, PAO1): greatly slowed | penetration and efficacy of coadministered antibiotics [5]: enhances the penetration and efficacy

Cc1cc(NS(=O)(=O)c2ccc(N)cc2)no1 [Sulfamethoxazole]
Antibiotic resistance (category) [1]: Resistant to Amikacin, Amoxicillin-clavulanate, Ampicillin,

CN(C)c1cc(NC(=O)CNC(C)(C)C)c(O)c2c1C[C@H]1C[C@H]3[C@H](N(C)C)C(O)=C(C(N)=O)C(=O)[C@@]3(O)C(O)=C1C2=O [Tigecycline]
Antibiotic resistance (category) [1]: Resistant to Amikacin, Amoxicillin-clavulanate, Ampicillin,

NC[C@H]1O[C@H](O[C@H]2[C@H](O)[C@@H](O[C@H]3O[C@H](CO)[C@@H](O)[C@H](N)[C@H]3O)[C@H](N)C[C@@H]2N)[C@H](N)C[C@@H]1O [Tobramycin]
Antibiotic resistance (category) [1]: Resistant to Amikacin, Amoxicillin-clavulanate, Ampicillin, | Antibiotic resistance (category) (Pseudomonas aeruginosa; strain 5539): resistant

CO/N=C(\C(=O)N[C@@H]1C(=O)N2C(C(=O)O)=C(COC(N)=O)CS[C@H]12)c1ccco1 [cefurixome]
Antibiotic resistance (category) (Pseudomonas aeruginosa; strain 5539): resistant

O=C(O)c1cn(C2CC2)c2cc(N3CCNCC3)c(F)cc2c1=O [ciprofloxacin]
Antibiotic resistance (category) (Pseudomonas aeruginosa; strain 5539): resistant | Antibiotic resistance (category) (Pseudomonas aeruginosa; strain 5832, MDR): resistant

Amoxicillin-clavulanate
Antibiotic resistance (category) [1]: Resistant to Amikacin, Amoxicillin-clavulanate, Ampicillin,

Colistin
Antibiotic resistance (category) (Pseudomonas aeruginosa; strain 2798 (ATCC 2798)): Susceptible

Piperacillin-tazobactam
Antibiotic resistance (category) [1]: Resistant to Amikacin, Amoxicillin-clavulanate, Ampicillin, | Antibiotic resistance (category) (Pseudomonas aeruginosa; strain 5539): resistant
